Assays:
[1] = tested on: neutrophils; assay: LPS model of acute pulmonary inflammation in rat; assay type: in vivo
Description: The administration of lipopolysaccharides (LPS) from gram-negative bacteria cell walls to the lungs of rats results in a rapid increase in the total number of leukocytes in the lumen of the lungs. The increase of neutrophils in the lung in the LPS model represents the conditions present a patients with chronic respiratory diseases such as cystic fibrosis, chronic bronchitis, emphysema, and certain subtypes of asthma. The LPS model of acute pulmonary inflammation is a well-established model for testing compounds having potential activities in treating inflammatory airway diseases.
Compound 11 (35 mg/kg) or vehicle (0.5% aqueous methylcellulose) was orally administered to groups of rats 15 minutes prior to pulmonary aerosolized LPS (˜2 micrograms/rat) or placebo (air) exposure (20 minute exposure) and 2.5 and 5 hours following the initial oral administration. Eight hours after pulmonary administration of aerosolized LPS, the lungs were lavaged to obtain bronchoalveolar lavage fluid, containing accumulated leukocytes.

[2] = tested on: neutrophils; assay: Inhibition of neutrophil chemotaxis (Boyden type chemotaxis chamber); assay type: cell-based, human; conditions: isolated neutrophils, chemoattractant in lower chamber, one to three hours at 37 C, effective concentrations of inhibitor
Protocol: Neutrophils were isolated from peripheral blood donated by healthy volunteers. Twenty milliliters of whole blood containing ACD ([…]) as an anticoagulant was layered over twenty milliliters Ficoll-Pacque Plus (Stem Cell Technologies, Vancouver, BC) and centrifuged for 45 minutes at 1500 rpm. Following centrifugation, the red blood cell layer (also containing the granulocytes) at the bottom of the tube was retained in the centrifugation tube while the top layers were removed. The red blood cell and granulocytes were combined with an equal volume of 3% Dextran 500 (Amersham Biosciences, Uppsala, Sweden) and mixed gently. The red blood cells were allowed to sediment for 30 minutes. […] The cells were resuspended in Hank's Balanced Salt Solution (HBSS, Invitrogen, Grand Island, N.Y.), and counted on a hemacytometer. […] Cell viability was determined through trypan blue exclusion and was greater than 95%. […]
Chemoattractant compounds (e.g. fMLP) are prepared as 20 mM stock solutions and dissolved in either DMSO or water. […] The number of migrated cells is determined by microscopy and counting the number of cells per high powered field.
Inhibitors of neutrophil chemotaxis are identified using a Boyden type chemotaxis chamber. […] The number of migrated cells is determined by microscopy and counting the number of cells per high powered field.

## CCNC(=O)Nc1ncnc2c1ncn2C1OC(CCC(=O)O)C2OC(/C=C/c3ccccc3)OC21 (stereo not drawn) [Compound 11, trans-3-{6-[6-(3-ethyl-ureido)-purin-9-yl]-2-styryl-tetrahydro-furo[3,4-d][1,3]dioxol-4-yl}-propionic acid]
[1]; rats treated with compound compared with animals not receiving it, acute model of pulmonary inflammation
  number of neutrophils found in the lumen of the lungs (FIG. 1): significant reduction
[1]; rats, 35 mg/kg oral 15 min prior to aerosolized LPS and 2.5 and 5 hours after first dose, lavage 8 hours after LPS, vs vehicle and LPS, p<0.001
  decrease in the number of neutrophils recovered in the lavage fluid: 56.6%
[2]
  number of migrated neutrophils: significant decrease
